From patent US8680159B2, “Bradykinin 1 receptor modulating compounds” (Gruenenthal GmbH, priority 2010, dated 2014)

molecular target: T1, B1R receptor of the rat (CHO K1 cells stably transfected with the B1R gene of the rat) (Rattus norvegicus, UniProt P97583); assay: Functional study on the bradykinin receptor 1 (B1R), Ca2+ fluorescence (Fluo-4) FLIPR/Novostar assay, rB1R cells; type: cell-based; conditions: CHO-K1, 10 μM, read-out: % Inhibition (r-B1R) at 10 μM
T1 construct: expressed in transfected cells; host or cells: CHO K1 cells (Chinese hamster ovary), stably transfected
T1 sequence (P97583 1-337): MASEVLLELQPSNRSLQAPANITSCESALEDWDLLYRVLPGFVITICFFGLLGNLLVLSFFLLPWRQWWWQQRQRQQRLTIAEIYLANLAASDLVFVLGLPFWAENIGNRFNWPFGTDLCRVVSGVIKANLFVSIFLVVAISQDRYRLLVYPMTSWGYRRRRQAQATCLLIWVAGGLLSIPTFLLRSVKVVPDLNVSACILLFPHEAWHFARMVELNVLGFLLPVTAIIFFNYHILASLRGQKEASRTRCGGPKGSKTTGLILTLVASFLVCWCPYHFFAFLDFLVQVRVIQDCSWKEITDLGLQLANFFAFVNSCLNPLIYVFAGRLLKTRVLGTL
Outline: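 Test compounds (10 μM) were added first and the Ca2+ rise was scored as % activation against Lys-Des-Arg9-bradykinin (≥50 nM, human) or Des-Arg9-bradykinin (≥1 μM, rat). After 6-20 min, the matching agonist was given at its EC80, and % inhibition relative to maximal achievable inhibition was calculated.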

Row | SMILES | inhibition at 10 µM
1 | Cc1cc(N2CCC(N(C)C(=O)c3ccc4c(c3)C(NC(=O)c3cccc(C(F)(F)F)c3Cl)CC4)CC2)cc(C)n1 (stereo not drawn) [CC_H-303, 3-[[2-Chloro-3-(trifluoromethyl)-benzoyl]amino]-N-[1-(2,6-dimethyl-pyridin-4-yl)-piperidin-4-yl]-N-methyl-2,3-dihydro-1H-indene-5-carboxylic acid amide] | 112%
2 | Cc1cc(N2CCC(N(C)C(=O)c3ccc4c(c3)C(NC(=O)Nc3ccccc3Cl)CC4)CC2)cc(C)n1 (stereo not drawn) [CC_H-304, 3-[[(2-Chlorophenyl)-carbamoyl]amino]-N-[1-(2,6-dimethyl-pyridin-4-yl)-piperidin-4-yl]-N-methyl-2,3-dihydro-1H-indene-5-carboxylic acid amide] | 98%
3 | Cc1cc(N2CCC(N(C)C(=O)c3ccc4c(c3)C(NC(=O)Nc3cccc(Cl)c3)CC4)CC2)cc(C)n1 (stereo not drawn) [CC_H-305, 3-[[(3-Chlorophenyl)-carbamoyl]amino]-N-[1-(2,6-dimethyl-pyridin-4-yl)-piperidin-4-yl]-N-methyl-2,3-dihydro-1H-indene-5-carboxylic acid amide] | 109%
4 | Cc1cc(N2CCC(N(C)C(=O)c3ccc4c(c3)C(NC(=O)Nc3c(Cl)cccc3Cl)CC4)CC2)cc(C)n1 (stereo not drawn) [CC_H-306, 3-[[(2,6-Dichloro-phenyl)-carbamoyl]amino]-N-[1-(2,6-dimethyl-pyridin-4-yl)-piperidin-4-yl]-N-methyl-2,3-dihydro-1H-indene-5-carboxylic acid amide] | 107%
5 | Cc1cc(N2CCC(N(C)C(=O)c3ccc4c(c3)C(NC(=O)Nc3cccc(Cl)c3Cl)CC4)CC2)cc(C)n1 (stereo not drawn) [CC_H-307, 3-[[(2,3-Dichloro-phenyl)-carbamoyl]amino]-N-[1-(2,6-dimethyl-pyridin-4-yl)-piperidin-4-yl]-N-methyl-2,3-dihydro-1H-indene-5-carboxylic acid amide] | 91%
6 | Cc1cc(N2CCC(N(C)C(=O)c3ccc4c(c3)C(NC(=O)Nc3cc(Cl)ccc3Cl)CC4)CC2)cc(C)n1 (stereo not drawn) [CC_H-308, 3-[[(2,5-Dichloro-phenyl)-carbamoyl]amino]-N-[1-(2,6-dimethyl-pyridin-4-yl)-piperidin-4-yl]-N-methyl-2,3-dihydro-1H-indene-5-carboxylic acid amide] | 96%
7 | Cc1cc(N2CCC(N(C)C(=O)c3ccc4c(c3)C(NC(=O)Nc3ccc(Cl)cc3Cl)CC4)CC2)cc(C)n1 (stereo not drawn) [CC_H-310, 3-[[(2,4-Dichlorophenyl)-carbamoyl]amino]-N-[1-(2,6-dimethyl-pyridin-4-yl)-piperidin-4-yl]-N-methyl-2,3-dihydro-1H-indene-5-carboxylic acid amide] | 101%
8 | Cc1cc(N2CCC(N(C)C(=O)c3ccc4c(c3)C(NC(=O)Nc3cc(C(F)(F)F)ccc3Cl)CC4)CC2)cc(C)n1 (stereo not drawn) [CC_H-311, 3-[[[2-Chloro-5-(trifluoromethyl)-phenyl]-carbamoyl]amino]-N-[1-(2,6-dimethyl-pyridin-4-yl)-piperidin-4-yl]-N-methyl-2,3-dihydro-1H-indene-5-carboxylic acid amide] | 80%
9 | Cc1cc(N2CCC(N(C)C(=O)c3ccc4c(c3)C(NC(=O)Nc3ccc(Cl)cc3C(F)(F)F)CC4)CC2)cc(C)n1 (stereo not drawn) [CC_H-312, 3-[[[4-Chloro-2-(trifluoromethyl)-phenyl]-carbamoyl]amino]-N-[1-(2,6-dimethyl-pyridin-4-yl)-piperidin-4-yl]-N-methyl-2,3-dihydro-1H-indene-5-carboxylic acid amide] | 92%
10 | Cc1cc(N2CCC(N(C)C(=O)c3ccc4c(c3)C(NC(=O)Nc3ccc(F)c(Cl)c3)CC4)CC2)cc(C)n1 (stereo not drawn) [CC_H-314, 3-[[(3-Chloro-4-fluoro-phenyl)-carbamoyl]amino]-N-[1-(2,6-dimethyl-pyridin-4-yl)-piperidin-4-yl]-N-methyl-2,3-dihydro-1H-indene-5-carboxylic acid amide] | 81%
11 | COc1ccc(Cl)cc1NC(=O)NC1CCc2ccc(C(=O)N(C)C3CCN(c4cc(C)nc(C)c4)CC3)cc21 (stereo not drawn) [CC_H-315, 3-[[(5-Chloro-2-methoxy-phenyl)-carbamoyl]amino]-N-[1-(2,6-dimethyl-pyridin-4-yl)-piperidin-4-yl]-N-methyl-2,3-dihydro-1H-indene-5-carboxylic acid amide] | 72%
12 | Cc1cc(N2CCC(N(C)C(=O)c3ccc4c(c3)C(NC(=O)N(C)c3ccccc3Cl)CC4)CC2)cc(C)n1 (stereo not drawn) [CC_H-316, 3-[[(2-Chlorophenyl)-methyl-carbamoyl]amino]-N-[1-(2,6-dimethyl-pyridin-4-yl)-piperidin-4-yl]-N-methyl-2,3-dihydro-1H-indene-5-carboxylic acid amide] | 106%
13 | Cc1cc(N2CCC(N(C)C(=O)c3ccc4c(c3)C(NC(=O)N(C)c3ccc(Cl)cc3Cl)CC4)CC2)cc(C)n1 (stereo not drawn) [CC_H-317, 3-[[(2,4-Dichlorophenyl)-methyl-carbamoyl]amino]-N-[1-(2,6-dimethyl-pyridin-4-yl)-piperidin-4-yl]-N-methyl-2,3-dihydro-1H-indene-5-carboxylic acid amide] | 110%
14 | Cc1cc(N2CCC(N(C)C(=O)c3ccc4c(c3)C(NC(=O)CC(C)C)CC4)CC2)cc(C)n1 (stereo not drawn) [CC_H-318, N-[1-(2,6-Dimethyl-pyridin-4-yl)-piperidin-4-yl]-N-methyl-3-(3-methyl-butanoylamino)-2,3-dihydro-1H-indene-5-carboxylic acid amide] | 111%
15 | CCCC(=O)NC1CCc2ccc(C(=O)N(C)C3CCN(c4cc(C)nc(C)c4)CC3)cc21 (stereo not drawn) [CC_H-319, 3-(Butanoylamino)-N-[1-(2,6-dimethyl-pyridin-4-yl)-piperidin-4-yl]-N-methyl-2,3-dihydro-1H-indene-5-carboxylic acid amide] | 106%
16 | Cc1cc(N2CCC(N(C)C(=O)c3ccc4c(c3)C(NC(=O)CCC3CCCC3)CC4)CC2)cc(C)n1 (stereo not drawn) [CC_H-320, 3-(3-Cyclopentyl-propanoylamino)-N-[1-(2,6-dimethyl-pyridin-4-yl)-piperidin-4-yl]-N-methyl-2,3-dihydro-1H-indene-5-carboxylic acid amide] | 110%
17 | CCS(=O)(=O)NC1CCc2ccc(C(=O)N(C)C3CCN(c4cc(C)nc(C)c4)CC3)cc21 (stereo not drawn) [CC_H-321, N-[1-(2,6-Dimethyl-pyridin-4-yl)-piperidin-4-yl]-3-[(ethylsulfonyl)amino]-N-methyl-2,3-dihydro-1H-indene-5-carboxylic acid amide] | 65%
18 | Cc1cc(N2CCC(N(C)C(=O)c3ccc4c(c3)C(NS(=O)(=O)Cc3cccc(C(F)(F)F)c3)CC4)CC2)cc(C)n1 (stereo not drawn) [CC_H-322, N-[1-(2,6-Dimethyl-pyridin-4-yl)-piperidin-4-yl]-N-methyl-3-[[[3-(trifluoromethyl)phenyl]-methylsulfonyl]amino]-2,3-dihydro-1H-indene-5-carboxylic acid amide] | 84%
19 | Cc1cc(N2CCC(N(C)C(=O)c3ccc4c(c3)C(NS(=O)(=O)Cc3ccccc3F)CC4)CC2)cc(C)n1 (stereo not drawn) [CC_H-323, N-[1-(2,6-Dimethyl-pyridin-4-yl)-piperidin-4-yl]-3-[[(2-fluorophenyl)-methylsulfonyl]amino]-N-methyl-2,3-dihydro-1H-indene-5-carboxylic acid amide] | 110%
20 | Cc1cc(N2CCC(N(C)C(=O)c3ccc4c(c3)C(NS(=O)(=O)CCc3ccccc3Cl)CC4)CC2)cc(C)n1 (stereo not drawn) [CC_H-324, 3-[[2-(2-Chlorophenyl)-ethylsulfonyl]amino]-N-[1-(2,6-dimethyl-pyridin-4-yl)-piperidin-4-yl]-N-methyl-2,3-dihydro-1H-indene-5-carboxylic acid amide] | 108%
21 | Cc1cc(N2CCC(N(C)C(=O)c3ccc4c(c3)C(N(C)C(=O)c3cc(F)ccc3Cl)CC4)CC2)cc(C)n1 (stereo not drawn) [CC_H-325, 3-[(2-Chloro-5-fluoro-benzoyl)-methyl-amino]-N-[1-(2,6-dimethyl-pyridin-4-yl)-piperidin-4-yl]-N-methyl-2,3-dihydro-1H-indene-5-carboxylic acid amide] | 112%
22 | Cc1cc(N2CCC(N(C)C(=O)c3ccc4c(c3)C(N(C)C(=O)c3cc(C(F)(F)F)ccc3Cl)CC4)CC2)cc(C)n1 (stereo not drawn) [CC_H-326, 3-[[2-Chloro-5-(trifluoromethyl)-benzoyl]-methyl-amino]-N-[1-(2,6-dimethyl-pyridin-4-yl)-piperidin-4-yl]-N-methyl-2,3-dihydro-1H-indene-5-carboxylic acid amide] | 112%
23 | Cc1cc(N2CCC(N(C)C(=O)c3ccc4c(c3)C(N(C)C(=O)c3c(F)ccc(C)c3Cl)CC4)CC2)cc(C)n1 (stereo not drawn) [CC_H-327, 3-[(2-Chloro-6-fluoro-3-methyl-benzoyl)-methyl-amino]-N-[1-(2,6-dimethyl-pyridin-4-yl)-piperidin-4-yl]-N-methyl-2,3-dihydro-1H-indene-5-carboxylic acid amide] | 112%
24 | Cc1cc(N2CCC(N(C)C(=O)c3ccc4c(c3)C(N(C)C(=O)c3cc(Cl)ccc3Cl)CC4)CC2)cc(C)n1 (stereo not drawn) [CC_H-328, 3-[(2,5-Dichloro-benzoyl)-methyl-amino]-N-[1-(2,6-dimethyl-pyridin-4-yl)-piperidin-4-yl]-N-methyl-2,3-dihydro-1H-indene-5-carboxylic acid amide] | 111%
